Results reported in a melting point compilation (Tetko et al.; mined from patent text by program, amines drawn as free bases though some values may be those of a salt).

Compound	melting point [°C]
CC(C)N(CCCC1CCN(CCNC(=O)N2c3cc(Cl)ccc3C(=O)Nc3cccnc32)CC1)C(C)C	175 to 176
CCOC(=O)c1ccc2cccc(N)c2c1	97 to 98
CC(C)C[C@H](NC(=O)OCc1ccccc1)C(=O)N[C@@H](Cc1ccccc1)C(=O)CN(C)C	81 to 82
COC(=O)Nc1nc(-c2ccccc2)c(-c2nc3ccccc3c(=O)n2-c2cccc(C)c2)s1	268 to 269
CCONC(=O)c1cc(-c2ncc(C(F)(F)F)cc2Cl)ccc1Cl	162 to 163
O=C(NCCO)/C(=C/c1ccc(OC(F)(F)F)cc1)NC(=O)c1ccc(OCCCC(F)(F)F)cc1	160 to 163
O=Cc1nn(-c2ccccc2)c2c1CCCC2	60
O=C(Nc1n[nH]c(=S)s1)NC(Cc1ccccc1)C(=O)NCc1ccccc1 (stereo not given)	167 to 170
Brc1ccc(C2CCN(C3CCC3)CC2)nc1	122 to 124
CC(C)c1nc(CC(=O)O)n(C)c1Sc1cc(Cl)cc(Cl)c1	118
CC(=O)C(=Cc1cccc([N+](=O)[O-])c1)C(=O)CCCCCCCCCCBr	64 to 67
C[C@@H](CO)Oc1ccc2cc(Br)ccc2c1	71 to 72
CN=C(NOC)c1nn(-c2c(Cl)cc(C(F)(F)F)cc2Cl)c(N)c1S(C)=O (stereo not given)	139 to 142
CC(=O)N1CCN(c2ccc(Nc3nccc(-c4sc(-c5cccnc5)nc4C)n3)cc2)CC1	123 to 125
CCCCC1OC(=O)c2cc(NC3CCCCC3)ccc21 (stereo not given)	123 to 124
CC(C)Cc1nc2ccc(Br)cc2c(-c2ccccc2)c1CO	116 to 118
Cc1ccc(S(=O)(=O)N2C(C)CN3C(=O)c4ccccc4C32c2ccc(F)cc2)cc1 (stereo not given)	215 to 217
CC(C)c1nn(-c2ncc(C(F)(F)F)cc2Cl)cc1CCCO	66 to 67
O=C(O)CCCCCCC(=O)c1cccnc1	113 to 115
CCCCc1nc2c(c(=O)[nH]1)CN(C(=O)C(C)(C)O)CC2	159 to 161
CCOC(=O)NN=Cc1nc[nH]c1C	195 to 203
Cn1ncnc1COc1nn2c(-c3cccs3)nncc2c1-c1ccccc1	209
CCOC(=O)Cc1csc(NC(=O)NC)n1	158 to 159
CC(C)c1ccc(S(=O)(=O)n2c(CO)cc3cc(C(F)(F)F)ccc32)cc1	112
CCNc1c(C)c(C)c2c(c1C)CC(C)(CN1CCC(c3ccccc3)CC1)O2 (stereo not given)	84 to 86

Compound	melting point [°C]
CCCCCCN=C=O	68 to 72
COC(=O)C(C)Oc1ccc([N+](=O)[O-])cc1 (stereo not given)	79 to 80
CC1(C)[C@@H](C=C2CC2)[C@@H]1C(=O)O (relative stereo)	85
Nc1c(-c2csc(-c3ccncc3)n2)c(=O)[nH]c2ccccc12	> 250
Cc1cccc(NC(=O)NC2N=C(c3ccccc3F)c3ccccc3N(CC(=O)O)C2=O)c1 (racemic)	167 to 169
CC(=O)c1ccc(OCCCOc2cc(NC(=O)C(=O)O)c(C)cc2Br)c(CCC(F)(F)F)c1O	133 to 135
FC(F)(F)c1ccc(-c2ncc(C#Cc3cc4ccccc4s3)s2)cc1	178 to 180
Cc1n[nH]c2c1nc(-c1ccccc1)c1cc(Br)ccc12	299 to 300
C=CCc1cc2c(C)cc(=O)oc2c(C)c1O	166 to 167
OC1CC=C(c2ccc(F)cc2)CC1 (stereo not given)	73 to 74.5
COc1cc(NC(=O)OC(C)CN2CCC(c3nn(C)c4cc(F)ccc34)CC2)cc(OC)c1OC (stereo not given)	74 to 77
CCCC1=C(C(=O)OCC)C(c2ccccc2Cl)c2cn(C(=O)c3ccccc3)nc2N1 (stereo not given)	119 to 121
NS(=O)(=O)c1ccc(C2CCN(c3ccncc3)CC2)cc1	295
O=C(O)c1ccc(-c2cccc(C(=O)O)c2)cc1	> 250
COc1ccc2c(c1)c(-c1cc3nccnc3[nH]1)cn2CCCN	95 to 100
CCn1c(C(C)NS(=O)(=O)c2ccc(Cl)c(Cl)c2)cnc1Sc1ccc(C)cc1 (stereo not given)	173 to 174
CCOC(=O)c1c(SCC(=O)COC(C)=O)nc2c(F)c(F)c(F)cc2c1O	175 to 180
C[C@@H]1Cc2ccsc2[C@H](C)N1CCNC(=O)c1ccccn1 (relative stereo)	116 to 120
CC(c1oc2ccccc2c(=O)c1-c1cccc(F)c1)n1ccc2ncnc(Cl)c21 (stereo not given)	166 to 168
Cc1cccc(Cl)c1S(=O)(=O)NC(=O)n1nc(Br)n(N(C)C)c1=O	163
O=C(O)CN[C@H]1C[C@H](O)CO1 (relative stereo)	53 to 56
C/C(NCc1ccccc1)=C(\C#N)C(N)=S	157 to 159
OC1Cc2ccccc2Sc2cc(Cl)c(F)cc21 (stereo not given)	86 to 87
O=c1c(CCCl)n[nH]c2ccccc12	201 to 203
N#Cc1cccnc1N1CCN(CC(=O)Nc2cccc([N+](=O)[O-])c2)CC1	143 to 145

Compound	melting point [°C]
O=C1CCN(c2ccc(C=C3SC(=O)NC3=O)cc2Br)CC1	> 210
CC(=NNC(=O)c1ccccc1C)c1ccncc1	187
COC(=O)c1cc(NC(C)=O)c2cc(Cc3ccc(F)cc3)cnc2c1O	243 to 245
CC(=O)NC[C@H]1CN(c2ccc(-n3cnnc3)c(F)c2)C(=O)O1	204 to 206
CCc1coc(=O)n1C(=O)c1ccccc1Cl	110 to 112
Cc1c(Cl)cccc1NC(=O)Nc1ccc(-n2nc(C(F)(F)F)cc2C(F)(F)F)cc1	193 to 196
CC(C)(C)OC(=O)NC12CC3CC(CC(O)(C3)C1)C2	131 to 132
Cc1ccc2c(c1NC(=O)CC1c3ccccc3Oc3ccccc31)OC(C)C2 (stereo not given)	290 to 291
C/C(=N\OCCOc1ccc(C(=O)O)cc1Cl)c1ccc(C(C)(C)C)cc1	167 to 169
CSc1cc(C(=O)O)ccc1C	175
CC(=O)NC[C@H]1CN(c2ccc(N3CCN(CCN4CCCCC4)CC3)c(F)c2)C(=O)O1	169 to 170
C#CCC(Oc1cccc(C)c1C)C1=NCCN1 (stereo not given)	70 to 73
CCCCCS(=O)(=O)NC(=O)/C=C/c1cc(OCCCC)nn1Cc1ccc(Cl)cc1Cl	95 to 98
Cc1nsc(Br)c1S(N)(=O)=O	148 to 150
CC(C)Oc1nsc(NC(=O)C(C)C)c1C#N	224
C[C@@H](Nc1ncnc2[nH]c(-c3ccc(CN(CCO)CCO)cc3)cc12)c1ccccc1	194 to 197
O=C1CCCN1CCn1c(=O)[nH]c2ncc(-c3ccc(-c4nc[nH]n4)cc3)nc21	300 to 301
N#Cc1ccc(Cc2nc3ccccc3[nH]2)cc1	133 to 136
Cc1ncc(CSC(=O)c2ccccc2)c(C=O)c1O	127 to 130
Cc1ccc(S(=O)(=O)N(c2ccc(C#N)cc2Cl)C(C)C)cc1	118 to 119
Cc1cc(=O)c2[nH]nc(-c3ccc(Cl)cc3)c2[nH]1	324 to 327
CC1(C)OC[C@H](Cc2ccccc2)N1C(=O)Cn1cc(I)cn1	117 to 120
Cc1cc(CO)cc(Oc2nc(Cl)nc(Cl)c2C(C)C)c1	140 to 141
CCOC(=O)C(C)=NNc1ccc(Cl)cc1Cl	118 to 120
N#Cc1cccc(NC(=O)CN2CCC(Cc3ccccc3)CC2)c1	88 to 90
